{"source": "patent US6090542A", "about": "“Process for inhibiting the transcription of genes” (Boehringer Ingelheim International GmbH, priority 1993, dated 2000)", "key": {"IL-6": {"system": "IL-6", "assay": "IL-6 in the cell supernatant of stimulated HeLa cells (ELISA)", "assay_type": "cell-based, human", "settings": "stimulus alone (TNF 200 E/ml or PMA 50 ng/ml)", "procedure": "(§1) The principle of the test arrangement corresponded to that of the previous examples.\n(§2) The cells were stimulated--with or without 30 minutes of pre-treatment with 100 μmol NBIG--with TNF (200 E/ml) or with PMA (50 ng/ml) and the concentration of IL-6 or IL-8 was measured in the cell supernatant at various intervals using ELISA (British Biotechnology Products Ltd.)."}, "IkB-α [1]": {"system": "IkB-α", "assay": "Western blot analysis of IkB-α in HeLa cells after TNF-α stimulation", "assay_type": "cell-based, human", "settings": "HeLa cells", "procedure": "(§3) The 7OZ/3 cells were treated with 50 E/ml IL-1β (Boehringer Mannheim) or with 15 μg/ml LPS (Sigma). Human HeLa cells were cultivated in DMEM, supplemented with 10%FCS and 1% L-glutamine and treated with 200 E/ml human recombinant TFN-α (genzyme).\nAs protease inhibitors Z-Ile-Glu(Ot-Bu)-Ala-leucinal (NBIG) and the chemically related substance Z-Leu-leucinal (Cbz-L-L) were used (Z standing for benzyloxycarbonyl).\nIn the figure the slower migrating form of IkB-α is identified with an asterisk."}, "IL-8": {"system": "IL-8", "assay": "IL-8 in the cell supernatant of stimulated HeLa cells (ELISA)", "assay_type": "cell-based, human", "settings": "120', stimulus alone (TNF 200 E/ml or PMA 50 ng/ml)", "procedure": "as §1, §2"}, "NF-KB [2]": {"system": "NF-KB", "assay": "EMSA of NF-KB DNA binding activity in total cell extracts of stimulated 7OZ/3 cells", "assay_type": "cell-based, mouse", "procedure": "7OZ/3 cells (ATCC No. TIB 158) were cultivated in RPMI-1640 medium (Gibco BRL), supplemented by 10% FCS (Gibco BRL) and 50 μM 2-mercaptoethanol. 2 ml aliquots with approx. 2-3×10^6 of suspended cells was treated with 50 ng/ml PMA (Sigma) for various periods. The treatment was interrupted by immediate centrifugation (5 s in an Eppendorf Microfuge) and cooling on ice. The cell pellets were lysed with 60 μl of a high-salt extraction buffer, containing the non-ionic detergent nonidet P-40 (Baeuerle and Baltimore, 1988b). The supernatant of a 15 minute centrifugation at 13.000 rpm in an Eppendorf Microfuge was analysed by Western blotting and EMSA (electrophoretic mobility shift assay). For SDS-PAGE and Western blotting 30 μl aliquots of the extracts were mixed with 15 μl SDS sample buffer (Laemmli, 1970), boiled and subjected to a SDS-PAGE on 12.5% polyacrylamide minigels (Biorad). The proteins were transferred by using a so-called semi-dry blotting device (Biorad; 1 h at 15V/2.5 mA/cm2) from the gels onto IMMOBILON-P-filter (0.45 μm; Millipore). The efficiency of the blot was checked by protein staining of the filters with Ponceau S (Serva). The filters were blocked overnight in a Tris-buffered saline solution, containing 0,1% (v/v) TWEEN-20 (TBST), 5% low-fat milk powder (Nestle) and 1% BSA. The filter was then incubated for one hour at ambient temperature with anti IkB-α IgG in a dialysed eluate of the IkB-α affinity column and diluted by 1:100 in the blocking buffer. After washing for 30 minutes in TBST the filter was incubated in a 1:4000 solution of goat-anti-rabbit IgG/horseradish-peroxidase conjugate (Biorad) in blocking buffer. After washing for 30 minutes in TBST the filter was treated with ECL detecting reagent (Amersham) and exposed (Kodak XR film, less than 1 minute). For EMSA 2 μl aliquots of the extracts were added to a binding mixture, resulting in a final concentration of […], […], pH 7.9, […] dithiothreitol, […] phenylmethylsulfonylfluoride (PMSF), 0.2% NONIDET P-40, 5% FICOLL, 20 μg BSA, 3 μg Poly (dl-dC) and 10.000 cpm (Cerenkov counting method) of a ^32 P marked double-stranded KB-oligonucleotide probe (Gibco BRL). The specificity of the protein DNA complex was confirmed by competition experiments and supershifting with a polyclonal antibody, recognising the C-terminal 100 amino acids of Rel-A (p65). After 20 minutes of incubation on ice the samples were subjected to electrophoresis on native 4% polyacrylamide gels, run in 0.5× TBE. The dried gels were exposed (Kodak XR film, -70° C., overnight).\nCell cultures, extract production, SDS-PAGE and Western blotting were carried out according to example 1. The cells were […] in 25 μm TPCK or TLCK (both from Sigma), and pre-treated in dimethylsulfoxide (DMSO). The control cultures received an equivalent amount of DMSO.\nThe results of the experiments are shown in FIG. 4: A: Effect of TPCK on the induction by PMA. The cells were treated without (left panel) or in presence of TPCK with PMA for the stipulated periods. The cell extracts were tested for the DNA binding activity of NF-KB using EMSA (top panel) and for the IkB-α protein quantity using Western blotting (bottom panel). The position of the NF-KB-DNA complex in a section of a fluorogram of a native gel is shown by a filled arrowhead. […] B: Effect of TPCK on the activation of NF-KB by IL-1β (I), LPS (L) and PMA (P) in 7OZ/3 cells; in control cells (Co). The cells were treated with TPCK for 10 minutes before stimulation (lanes 6-8) or for an additional 10 minutes after stimulation (lanes 10-12; 30 minutes with IL-1β and PMA or 60 minutes with LPS). The total cell extracts of control cells (lanes 1-4) and cells treated with TPCK (lanes 5-12) were tested for the DNA binding activity of NF-KB using EMSA; a section of a fluorogram of a native gel is shown. […] C: Effect of TLCK on the activation of NF-KB by PMA. […]"}, "IkB-α [3]": {"system": "IkB-α", "assay": "Western blotting of IkB-α in extracts of 7OZ/3 cells", "assay_type": "cell-based, mouse"}, "7OZ/3 cells": {"system": "7OZ/3 cells", "settings": "10 μg/ml; cited from earlier work"}, "NF-KB [4]": {"system": "NF-KB", "assay": "EMSA of NF-KB activation in HeLa cells after TNF-α stimulation", "assay_type": "cell-based, human", "settings": "HeLa cells, TNF-α stimulation, Cbz-L-L", "procedure": "as §3, with “The methods used in this example for the culture of the 7OZ/3 cells and the production of the cell extracts were implemented as stated in example 1. The” for “The”\nThe test arrangement in this example corresponded to that of example 4; HeLa cells were cultivated as stated in example 2 and TNF-α was used as inductor for the NF-KB activation. As protease inhibitors Z-Ile-Glu(Ot-Bu)-Ala-leucinal (NBIG) and the chemically related substance Z-Leu-leucinal (Cbz-L-L) were used (Z standing for benzyloxycarbonyl).\na) The electrophoretic mobility shift assays were carried out by using a ^32 P labelled oligonucleotide with a NF-KB binding site on whole cell extracts from HeLa cells. […] The ID50 value for NBIG was approx. 50 μM (FIG. 7B)."}, "[5]": {"settings": "7OZ/3 cells, one-hour treatment with cycloheximide, no PMA"}}}
{"compound": "TNF-α", "values": [{"measurement": "IL-6", "setting": "IL-6; 15'", "result": 875, "unit": "pg/mL"}, {"measurement": "IL-6", "setting": "IL-6; 120'", "result": 6750, "unit": "pg/mL"}, {"measurement": "decay of IkB-α", "setting": "IkB-α [1]", "result": "induced a decay"}, {"measurement": "time after stimulation at which most of the IkB-α had decayed", "setting": "IkB-α [1]", "result": "≤ 5", "unit": "min"}, {"measurement": "IL-8", "setting": "IL-8", "result": 52, "unit": "pg/mL"}]}
{"compound": "C[C@@H]1C[C@@H]([C@H](O)CC2CC(=O)NC(=O)C2)C(=O)[C@@H](C)C1", "note": "[cycloheximide]", "values": [{"measurement": "binding of NF-KB to DNA", "setting": "NF-KB [2]; [5]", "result": "induced only slightly"}, {"measurement": "reoccurrence of IkB-α 40 minutes after PMA treatment", "setting": "IkB-α [3]; 7OZ/3 cells pre-treated with cycloheximide, then PMA", "result": "prevents"}, {"measurement": "IkB-α detected by Western blotting", "setting": "IkB-α [3]; [5]", "result": "large amounts"}, {"measurement": "half-life of IkB-α", "setting": "IkB-α [3]; cycloheximide-treated 7OZ/3 cells, without PMA, quantitative Western blotting", "result": "approx. 138 minutes"}, {"measurement": "inhibition of protein synthesis", "setting": "7OZ/3 cells", "result": 90, "unit": "%"}]}
{"compound": "IL-1β: inflammatory cytokine used as inducer of NF-KB", "values": [{"measurement": "decay of IkB-α", "setting": "IkB-α [3]; 7OZ/3 cells", "result": "induced a decay"}]}
{"compound": "CC(C)CC(C=O)NC(=O)C(CC(C)C)NC(=O)OCc1ccccc1", "note": "[Cbz-L-L, Z-Leu-leucinal]", "values": [{"measurement": "inhibition of IkB-α degradation and accumulation of modified IkB-α", "setting": "IkB-α [1]; TNF-α, 50 μm", "result": "does not show these effects"}, {"measurement": "prevention of NF-KB-DNA complex formation", "setting": "NF-KB [4]", "result": "did not occur"}]}
{"compound": "Cc1ccc(S(=O)(=O)N[C@@H](CCCCN)C(=O)CCl)cc1", "note": "[TLCK, p-tosyl-L-lysinchloromethylketone]", "values": [{"measurement": "inhibition of the NF-KB activation", "setting": "NF-KB [2]; 7OZ/3 cells, 100 μM TLCK", "result": "partial inhibition"}, {"measurement": "prevention of the activation of NF-KB", "setting": "NF-KB [2]; 7Z/3 cells, 25 μM, PMA", "result": "unable to prevent"}]}
